Experimental data: paper PMC10399917 (Journal of Molecular Cell Biology, 2023)

Biological target: His-SPIKE-S2 (Severe acute respiratory syndrome coronavirus 2, UniProt P0DTC2)
Format: binding, SARS-CoV-2
Settings: 25 µM

| Structure (SMILES) | Thermal shift of His-SPIKE-S2 compared to DMSO control |
| --- | --- |
| N#C/C(=C/c1ccc(O)c(O)c1)C(=O)NCc1ccccc1 [AG-490] | did not show a change in the thermal shift curve |
| O=C(/C=C/c1ccc(O)c(O)c1)OCCc1ccccc1 [CAPE, caffeic acid phenethyl ester] | did not show a change in the thermal shift curve |
| CC(C)c1onc(-c2c(Cl)cccc2Cl)c1COc1ccc(/C=C/c2cccc(C(=O)O)c2)c(Cl)c1 [GW4064] | interfered with the assay |
| Cc1cc2c(C(C)C)c(O)c(O)c(C=O)c2c(O)c1-c1c(C)cc2c(C(C)C)c(O)c(O)c(C=O)c2c1O [gossypol acetate] | showed thermal shift |
